According to patent publication US10538498B2, “1,3,4-oxadiazole sulfonamide derivative compounds as histone deacetylase 6 inhibitor, and the pharmaceutical composition comprising the same” (Chong Kun Dang Pharmaceutical Corp., priority 2015, dated 2020):

Target: T1, human recombinant HDAC6 (Homo sapiens, UniProt Q9UBN7)
T1 construct: purchased Calbiochem 382180
T1 sequence (Q9UBN7 1-1215): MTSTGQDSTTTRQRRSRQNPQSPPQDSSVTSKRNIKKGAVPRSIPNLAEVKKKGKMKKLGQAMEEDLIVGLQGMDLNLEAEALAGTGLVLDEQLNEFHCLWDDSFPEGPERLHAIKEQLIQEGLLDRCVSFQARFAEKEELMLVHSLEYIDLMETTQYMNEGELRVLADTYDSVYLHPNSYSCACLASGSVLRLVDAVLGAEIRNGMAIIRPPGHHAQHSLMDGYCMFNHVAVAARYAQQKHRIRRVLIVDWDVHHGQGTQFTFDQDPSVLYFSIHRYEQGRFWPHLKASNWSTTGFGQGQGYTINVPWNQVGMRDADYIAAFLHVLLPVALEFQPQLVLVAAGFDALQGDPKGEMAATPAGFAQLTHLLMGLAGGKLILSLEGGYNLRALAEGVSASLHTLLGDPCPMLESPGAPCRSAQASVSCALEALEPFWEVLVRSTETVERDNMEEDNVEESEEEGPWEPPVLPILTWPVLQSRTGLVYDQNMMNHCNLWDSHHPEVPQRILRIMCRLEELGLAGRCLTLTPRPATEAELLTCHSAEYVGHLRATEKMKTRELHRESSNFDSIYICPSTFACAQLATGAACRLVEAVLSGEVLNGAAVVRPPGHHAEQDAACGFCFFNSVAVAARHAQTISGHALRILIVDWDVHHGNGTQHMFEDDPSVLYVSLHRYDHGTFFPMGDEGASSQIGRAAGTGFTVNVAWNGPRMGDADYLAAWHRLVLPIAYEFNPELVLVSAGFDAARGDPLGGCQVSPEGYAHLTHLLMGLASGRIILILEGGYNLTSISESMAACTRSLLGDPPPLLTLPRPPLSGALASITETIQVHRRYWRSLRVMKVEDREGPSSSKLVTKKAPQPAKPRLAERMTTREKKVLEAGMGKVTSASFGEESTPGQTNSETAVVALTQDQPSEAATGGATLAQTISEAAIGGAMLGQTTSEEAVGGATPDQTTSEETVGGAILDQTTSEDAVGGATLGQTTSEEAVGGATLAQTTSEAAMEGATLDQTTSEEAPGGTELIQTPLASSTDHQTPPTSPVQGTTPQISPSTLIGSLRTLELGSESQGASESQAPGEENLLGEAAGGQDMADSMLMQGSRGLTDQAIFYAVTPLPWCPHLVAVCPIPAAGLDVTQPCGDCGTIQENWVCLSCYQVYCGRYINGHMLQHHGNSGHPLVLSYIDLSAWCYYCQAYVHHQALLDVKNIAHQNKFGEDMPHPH
Assay: HDAC6 enzyme activity inhibition assay (HDAC Fluorimetric Drug Discovery Kit)
Type: biochemical
Settings: for HDAC6 selectivity (fold): HDAC1 vs HDAC6; for IC50: same protocol as the HDAC1 enzyme activity test
Outline: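 Both isoforms are run by an identical fluorimetric protocol: deacetylation of 10 μM Fluor de Lys-SIRT1 substrate by 0.3 μg recombinant enzyme over 60 min at 30° C, in the presence of 5-fold compound dilutions. Signal is developed for 30 min and read at Ex 360/Em 460 to derive IC50.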

Row | Structure (SMILES) | HDAC6 selectivity (fold) | IC50
1 | O=S(=O)(C1CCN(C2CC(O)C2)CC1)N(Cc1ccc(-c2nnc(C(F)F)o2)cc1)c1cccc(Cl)c1 (stereo not shown) [Compound 11793, N-(3-chlorophenyl)-N-(4-(5-(difluoromethyl)-1,3,4-oxadiazol-2-yl)benzyl)-1-(3-hydroxycyclobutyl)piperidine-4-sulfonamide] | 1718 fold | 58.2 nM
2 | O=S(=O)(CCN1CC[C@H](F)C1)N(Cc1ccc(-c2nnc(C(F)F)o2)cc1)c1ccccc1 [Compound 11795, (S)—N-(4-(5-(difluoromethyl)-1,3,4-oxadiazol-2-yl)benzyl)-2-(3-fluoropyrrolidin-1-yl)-N-phenylethane-1-sulfonamide] | 1466 fold | 68.2 nM
3 | CCN(CC)CCS(=O)(=O)N(Cc1ccc(-c2nnc(C(F)F)o2)cc1)c1ccccc1 [Compound 11798, 2-(diethylamino)-N-(4-(5-(difluoromethyl)-1,3,4-oxadiazol-2-yl)benzyl)-N-phenylethane-1-sulfonamide] | 538 fold | 186 nM
4 | O=S(=O)(CCN1CC[C@H](O)C1)N(Cc1ccc(-c2nnc(C(F)F)o2)cc1)c1ccccc1 [Compound 11800, (S)—N-(4-(5-(difluoromethyl)-1,3,4-oxadiazol-2-yl)benzyl)-2-(3-hydroxypyrrolidin-1-yl)-N-phenylethane-1-sulfonamide] | 2252 fold | 44.4 nM
5 | O=S(=O)(CCN1CC[C@@H](O)C1)N(Cc1ccc(-c2nnc(C(F)F)o2)cc1)c1ccccc1 [Compound 11801, (R)—N-(4-(5-(difluoromethyl)-1,3,4-oxadiazol-2-yl)benzyl)-2-(3-hydroxypyrrolidin-1-yl)-N-phenylethane-1-sulfonamide] | 2941 fold | 34 nM
6 | O=S(=O)(CCN1CC[C@@H](CO)C1)N(Cc1ccc(-c2nnc(C(F)F)o2)cc1)c1ccccc1 [Compound 11805, (R)—N-(4-(5-(difluoromethyl)-1,3,4-oxadiazol-2-yl)benzyl)-2-(3-(hydroxymethyl)pyrrolidin-1-yl)-N-phenylethane-1-sulfonamide] | 3021 fold | 33.1 nM
7 | Cc1nccn1CCS(=O)(=O)N(Cc1ccc(-c2nnc(C(F)F)o2)cc1)c1ccccc1 [Compound 11806, N-(4-(5-(difluoromethyl)-1,3,4-oxadiazol-2-yl)benzyl)-2-(2-methyl-1H-imidazol-1-yl)-N-phenylethane-1-sulfonamide] | 4000 fold | 25 nM
8 | Cc1cncn1CCS(=O)(=O)N(Cc1ccc(-c2nnc(C(F)F)o2)cc1)c1ccccc1 [Compound 11807, N-(4-(5-(difluoromethyl)-1,3,4-oxadiazol-2-yl)benzyl)-2-(5-methyl-1H-imidazol-1-yl)-N-phenylethane-1-sulfonamide] | 1584 fold | 63.1 nM
9 | O=S(=O)(CCn1cnc(CO)c1)N(Cc1ccc(-c2nnc(C(F)F)o2)cc1)c1ccccc1 [Compound 11808, N-(4-(5-(difluoromethyl)-1,3,4-oxadiazol-2-yl)benzyl)-2-(4-(hydroxymethyl)-1H-imidazol-1-yl)-N-phenylethane-1-sulfonamide] | 2881 fold | 34.7 nM
10 | O=S(=O)(CCN1CCC(CO)CC1)N(Cc1ccc(-c2nnc(C(F)F)o2)cc1)c1ccccc1 [Compound 11810, N-(4-(5-(difluoromethyl)-1,3,4-oxadiazol-2-yl)benzyl)-2-(4-(hydroxymethyl)piperidin-1-yl)-N-phenylethane-1-sulfonamide] | 2793 fold | 35.8 nM
11 | O=S(=O)(CCN1CCCC(CO)C1)N(Cc1ccc(-c2nnc(C(F)F)o2)cc1)c1ccccc1 (stereo not shown) [Compound 11811, N-(4-(5-(difluoromethyl)-1,3,4-oxadiazol-2-yl)benzyl)-2-(3-(hydroxymethyl)piperidin-1-yl)-N-phenylethane-1-sulfonamide] | 2358 fold | 42.4 nM

More lines, in order of falling IC50, values ahead:

Row | HDAC6 selectivity (fold) | IC50 | Structure (SMILES)
12 | 56 fold | 1780 nM | O=S(=O)(CCN(Cc1ccccc1)Cc1ccccc1)N(Cc1ccc(-c2nnc(C(F)F)o2)cc1)c1ccccc1 [Compound 11796, 2-(dibenzylamino)-N-(4-(5-(difluoromethyl)-1,3,4-oxadiazol-2-yl)benzyl)-N-phenylethane-1-sulfonamide]
13 | 516 fold | 194 nM | O=S(=O)(CCN1CC(O)C1)N(Cc1ccc(-c2nnc(C(F)F)o2)cc1)c1ccccc1 [Compound 11799, N-(4-(5-(difluoromethyl)-1,3,4-oxadiazol-2-yl)benzyl)-2-(3-hydroxyazetidine-1-yl)-N-phenylethane-1-sulfonamide]
14 | 821 fold | 122 nM | CN(C)CCS(=O)(=O)N(Cc1ccc(-c2nnc(C(F)F)o2)cc1)c1ccccc1 [Compound 11797, N-(4-(5-(difluoromethyl)-1,3,4-oxadiazol-2-yl)benzyl)-2-(dimethylamino)-N-phenylethane-1-sulfonamide]
15 | 2192 fold | 45.6 nM | O=S(=O)(C1CCN(C2CCC2)CC1)N(Cc1ccc(-c2nnc(C(F)F)o2)cn1)c1ccccc1 [Compound 11794, 1-cyclobutyl-N-((5-(5-(difluoromethyl)-1,3,4-oxadiazol-2-yl)pyridin-2-yl)methyl)-N-phenylpiperidine-4-sulfonamide]
16 | 2849 fold | 35.1 nM | O=S(=O)(CCN1CCC[C@H]1CO)N(Cc1ccc(-c2nnc(C(F)F)o2)cc1)c1ccccc1 [Compound 11802, (S)—N-(4-(5-(difluoromethyl)-1,3,4-oxadiazol-2-yl)benzyl)-2-(2-(hydroxymethyl)pyrrolidin-1-yl)-N-phenylethane-1-sulfonamide]
17 | 3039 fold | 32.9 nM | NC(=O)[C@@H]1CCCN1CCS(=O)(=O)N(Cc1ccc(-c2nnc(C(F)F)o2)cc1)c1ccccc1 [Compound 11812, (S)-1-(2-(N-(4-(5-(difluoromethyl)-1,3,4-oxadiazol-2-yl)benzyl)-N-phenylsulfamoyl)ethyl)pyrrolidine-2-carboxamide]
18 | 3115 fold | 32.1 nM | O=S(=O)(CCN1CC[C@H](CO)C1)N(Cc1ccc(-c2nnc(C(F)F)o2)cc1)c1ccccc1 [Compound 11804, (S)—N-(4-(5-(difluoromethyl)-1,3,4-oxadiazol-2-yl)benzyl)-2-(3-(hydroxymethyl)pyrrolidin-1-yl)-N-phenylethane-1-sulfonamide]
19 | 3222 fold | 30.1 nM | O=S(=O)(CCn1cncn1)N(Cc1ccc(-c2nnc(C(F)F)o2)cc1)c1ccccc1 [Compound 11809, N-(4-(5-(difluoromethyl)-1,3,4-oxadiazol-2-yl)benzyl)-N-phenyl-2-(1H-1,2,4-triazol-1-yl)ethane-1-sulfonamide]
20 | 4587 fold | 21.8 nM | O=S(=O)(CCN1CCC[C@@H]1CO)N(Cc1ccc(-c2nnc(C(F)F)o2)cc1)c1ccccc1 [Compound 11803, (R)—N-(4-(5-(difluoromethyl)-1,3,4-oxadiazol-2-yl)benzyl)-2-(2-(hydroxymethyl)pyrrolidin-1-yl)-N-phenylethane-1-sulfonamide]
